Values joined by “and” are separate entries in the source; they are usually repeats but may differ in a detail not shown here. Identical values can stand only once. Marks after values point to notes of the source that are not given here.
System: patients suffering from Alzheimer's disease
Experiment: Clinical trial of dimebon tablets, inventors' scale (E. E. Bukatina et al.; 0 = absence of a symptom, 4 = greatest manifestation)
Format: in vivo, human
Experimental: The test was carried out under the direct supervision by two of the inventors, namely E. E. Bukatina and V. Grigorieva, in 14 patients who agreed to take part in the tests, 13 of whom lived in a boarding house for senile persons and one patient lived with their family.
Alzheimer's disease was diagnosed on the basis of criteria ICD-10 NINCDS ADRDA.
Dimebon in the form of tablets (comprising 10 mg of dimebon, 30 mg of lactose, 5 mg of magnesium stearate was prescribed for oral administration in a dose of 0.02 g three to times a day. The patients living in the boarding house received dimebon for 58 days. A patient (observation 14) who was under outpatient observation continued taking the agent for a month after the completion of the tests.
Before the treatment with dimebon, and at 4 and 8 weeks after treatment the patients were examined according to Hazegawa's scale and the inventors' scale (“Social and Clinical Psychiatry”, 1992, No.4, pp.29–37) which includes the following indexes: (1) orientation in locality, time, immediate surroundings and one's own personality; (2) orientation in space; (3) memory for the past; (4) memory for the present; (5) “life in the past”; (6) (a) articulation, (b) difficulty in finding words, and distortion of words; (c) naming of objects; (d) following instructions; (7) concentration (of attention); (8) an affective sphere; (a) high spirits, (b) low spirits; (9) delirium; (10) hearing hallucinations; (11) visual hallucinations; (12) senile or senile-like confusion (when motion anxiety is accompanied by the revival of the past experience); (13) irritability; (14) anxiety; (15) asthenia; (16) headaches; (17) dizziness; (18) tearfulness; (19) spontaneous activity; (20) elementary self-service; and (21 control of sphincters.
According to the Hazegawa's scale, the 0 score indicates the poorest result; on the contrary, according to the inventors' scale, the 0 score indicates the absence of a symptom 4 score indicates the greatest manifestation thereof. […] Before the therapy was started, the patients had been independently examined by two doctors who used the inventors' scale. The examination during the treatment was carried out by the doctors using both the scales. The evaluation according to all the inventors' scale points during all the tests and their variations during the treatment with dimebon are given in the Appendix.
According to the inventors' scale, the degree of the disturbance if the cognitive functions was determined by a sum of evaluations according to the first 5 scale points reflecting the condition of memory, orientation and relation with the reality. The disturbance of speech was dealt with separately and was determined by a sum of evaluations according to items 6b-6d.
Both absolute evaluations of the signs under investigation (the evaluation prior to treatment is a mean evaluation of the two examinations) and variations in them were analysed in the course of therapy. In doing so, only those changes that were beyond the range of evaluations obtained in two pre-treatment examinations were taken into consideration.
The test results reflected the condition of the patients at the time of the examination. Any changes in the metal state observed in the interval between the tests and disappearing by the moment of examination according to the scale were described in the section “Clinical Observations”.
The statistical data processing was carried out by means of Student's t-test and Fisher's “Fi” criterion.

[1] = score after 4 weeks, per patient, listed as dimebon
[2] = score after 8 weeks, per patient, listed as dimebon

With `Cc1ccc2c(c1)c1c(n2CCc2ccc(C)nc2)CCN(C)C1` [No. 10, 2,8-dimethyl-5-[2-(6-methyl-3-pyridyl)ethyl]-2,3,4,5-tetrahydro-1H-pyrido[4,3-b]indole] the “share of patients with improvement of depression” value (of 11 patients with depressive symptoms prior to treatment, 8 weeks) was 55%, the “2. Orientation in space, 4 weeks” value [1] was 0 (10×) and 1 and 1.5 (2×) and 0.5 and the “4. Memory for the present, 4 weeks” value [1] was 1.5 and 2 (4×) and 1 (3×) and 3 (5×) and 3.5. For the same compound, the “5. Life in the past, 4 weeks” value [1] was 1 (2×) and 1.5 (2×) and 0.5 (2×) and 2.5 (3×) and 2 (4×) and 3, the “6b. Difficulty in finding words, 4 weeks” value [1] was 0 (9×) and 1 (2×) and 1.5 and 0.5 and 2 and the “6c. Naming of objects, 4 weeks” value [1] was 0 (7×) and 1 (4×) and 2 (3×). For the same compound, the “7. Concentration, 4 weeks” value [1] was 1.5 (2×) and 0 and 1 (3×) and 3 (4×) and 2 (3×) and 0.5, the “8b. Lower spirits, 4 weeks” value [1] was 1 (4×) and 0 (7×) and 0.5 (2×) and 2 and the “9. Delirium, 4 weeks” value [1] was 0 (9×) and 1 (2×) and 2.5 and 1.5 and 2. The “13. Irritability, 4 weeks” value [1] was 0 (12×) and 2 and 1, the “14. Anxiety, 4 weeks” value [1] was 0 (10×) and 1 (4×) and the “15. Asthenia, 4 weeks” value [1] was 0 (11×) and 1 (2×) and 0.5. For the same compound, the “16. Headache, 4 weeks” value [1] was 0.5 and 0 (11×) and 1 and 3, the “17. Dizziness, 4 weeks” value [1] was 0.5 and 0 (8×) and 1 (2×) and 2 and 2.5 and 3 and the “18. Tearfulness, 4 weeks” value [1] was 1 and 0 (13×). For the same compound, the “19. Spontaneous activity, 4 weeks” value [1] was 1.5 and 1 (5×) and 0.5 and 2 (4×) and 0 (2×) and 3, the “20. Elementary self-service, 4 weeks” value [1] was 0 (13×) and 1 and the “6d. Performing instructions, 4 weeks” value [1] was 1 (4×) and 0 (8×) and 0.5 and 2. The “1. Orientation in locality and time, 8 weeks” value (score after 8 weeks of treatment, per patient, listed as dimebon) was 2 (4×) and 3 (2×) and 1.5 (2×) and 0 and 0.5 (2×) and 1 (2×), the “18. Tearfulness, 8 weeks” value (score after 8 weeks, per patient) was 0 and the “2. Orientation in space, 8 weeks” value [2] was 0 (11×) and 1.5 and 1. For the same compound, the “4. Memory for the present, 8 weeks” value [2] was 1 (4×) and 0.5 and 1.5 (2×) and 3 (4×) and 2 (2×) and 2.5, the “5. Life in the past, 8 weeks” value [2] was 0.5 (5×) and 1 (2×) and 3 (3×) and 1.5 and 2.5 (2×) and 2 and the “6b. Difficulty in finding words, 8 weeks” value [2] was 0 (11×) and 1.5 and 2 (2×). The “6c. Naming of objects, 8 weeks” value [2] was 0 (9×) and 1 (2×) and 2 (2×) and 1.5, the “7. Concentration, 8 weeks” value [2] was 1 (5×) and 0 and 3 and 2 (3×) and 3.5 and 2.5 and 4 and 0.5 and the “8b. Lower spirits, 8 weeks” value [2] was 0.5 (2×) and 0 (7×) and 1 (4×) and 1.5. The “9. Delirium, 8 weeks” value [2] was 0 (9×) and 1.5 (2×) and 1 (2×) and 2, the “13. Irritability, 8 weeks” value [2] was 0 (12×) and +1 and 1 and the “14. Anxiety, 8 weeks” value [2] was 0 (11×) and 1 (2×) and 0.5. The “15. Asthenia, 8 weeks” value [2] was 0 (13×) and 0.5, the “16. Headache, 8 weeks” value [2] was 0 (8×) and 1 (2×) and 2 and 1.5 and 0.5 and 3 and the “17. Dizziness, 8 weeks” value [2] was 0 (8×) and 1.5 and 3 and 2 and 1 (3×). The “19. Spontaneous activity, 8 weeks” value [2] was 1 (7×) and 1.5 and 0 (3×) and 2 (2×) and 4, the “20. Elementary self-service, 8 weeks” value [2] was 0 (13×) and 2 and the “6d. Performing instructions, 8 weeks” value [2] was 1 (5×) and 2.5 and 0 (8×). The “Cognitive functions (first 5 scale points): improvements, %” value (from here on “Cognitive functions … %”) (slight (by 0.5 score), 4 weeks) was 5.7* %, the “Cognitive functions (first 5 scale points): improvements, abs.” value (shortened to “Cognitive functions … abs.”) (slight (by 0.5 score), 4 weeks) was 4* and the “Speech functions (items 6b, c, d): improvements, %” value (shortened to “Speech functions … improvements, %”) (slight (by 0.5 score), 4 weeks) was 2.4%. For the same compound, the “Speech functions (items 6b, c, d): improvements, abs.” value (shortened to “Speech functions … improvements, abs.”) (slight (by 0.5 score), 4 weeks) was 1, the “Cognitive functions … %” value (slight (by 0.5 score), 8 weeks) was 25.7* % and the “Cognitive functions … abs.” value (slight (by 0.5 score), 8 weeks) was 18*. The “Speech functions (items 6b, c, d): deteriorations, %” value (from here on “Speech functions … deteriorations, %”) (slight (by 0.5 score), 8 weeks) was 2.4%, the “Speech functions (items 6b, c, d): deteriorations, abs.” value (slight (by 0.5 score), 8 weeks) was 1 and the “Speech functions … improvements, %” value (slight (by 0.5 score), 8 weeks) was 7.14%. The “Speech functions … improvements, abs.” value (slight (by 0.5 score), 8 weeks) was 3, the “Cognitive functions … %” value (total, 4 weeks) was 11.4% and the “Cognitive functions … abs.” value (total, 4 weeks) was 8. For the same compound, the “Speech functions … deteriorations, %” value (total, 4 weeks) was 2.4%, the “Speech functions (items 6b, c, d): deteriorations, abs.” value (total, 4 weeks) was 1 and the “Speech functions … improvements, %” value (total, 4 weeks) was 9.5%. For the same compound, the “Speech functions … improvements, abs.” value (total, 4 weeks) was 4, the “Cognitive functions … %” value (total, 8 weeks) was 34.3% and the “Cognitive functions … abs.” value (total, 8 weeks) was 24. For the same compound, the “Speech functions … deteriorations, %” value (total, 8 weeks) was 9.6%, the “Speech functions (items 6b, c, d): deteriorations, abs.” value (total, 8 weeks) was 4 and the “Speech functions … improvements, %” value (total, 8 weeks) was 14.3%. For the same compound, the “Speech functions … improvements, abs.” value (total, 8 weeks) was 6 and the “Item 10. hearing hallucinations” value (whole period of investigations, all patients) was “Item 10. No hearing hallucinations were observed throught the whole period of investigations”.
